Measurements as given in US20150050734A1, “Carbon Nanotubes And Methods Of Use” (DUKE UNIVERSITY, priority 2012, published 2015).
Entries after “also recorded” stand apart in the source; their conditions may differ.

Legend:
[1] = system: primary cortical neurons; test: Clomeleon-based ratiometric chloride imaging; type: cell-based, rat; conditions: for effect on neuronal [Cl−]i: KN93 1 μM
Description: The preparation of primary cortical neurons was adapted from a previous protocol. […] Briefly, cortices were microdissected from embryonic rats (E18) or mice (E16.5).
The tissue was dissociated using papain, followed by mechanical dissociation. Cytosine arabinoside (2.5 μM) was added to cultures to inhibit the proliferation of non-neuronal cells. Cell suspension was plated at a density of 10^6 cells mL^−1 onto tissue-culture dishes. 12 mm-diameter matrix-covered glass coverslips were contained in tissue culture dishes, typically n=3.

[2] = system: KCC2; test: KCC2 immunocytochemistry / densitometry in cultured neurons; type: cell-based, rat; conditions: KN93 1 μM
Description: Confocal fluorescence imaging was conducted after immunolabeling for β3-tubulin (mouse monoclonal antibody; 1:200, Iowa hybridoma bank, Iowa City, United States), and KCC2 (rabbit polyclonal antibody; Abcam; 1:200). Id.. Fluorescently labeled sections were visualized in a Zeiss LSM710 (Carl Zeiss AG, Oberkochen, Germany) confocal imaging suite with lasers tuned to the […] spectra of the secondary fluorescent antibodies (coupled to Alexa-488 and Alexa-595 dyes), as described previously. Li, J. et al. (2011) Environ Health Perspect 119:784-793.
Morphometry for confocal and light-microscopy acquired images was conducted as previously described. Yeo, M. et al. (2009) J. Neurosci 29:14652-14662.

Structure (SMILES)	effect on acceleration of the chloride shift and upregulation of KCC2 ([1]; KN62 1 μM, fwCNT-cultured primary neurons)	effect on neuronal [Cl−]i ([1]; Au-cultured neurons)	effect on neuronal [Cl−]i ([1]; fwCNT-cultured neurons)	effect on KCC2 expression ([2]; Au-cultured neurons)	effect on KCC2 upregulation ([2]; fwCNT-cultured neurons)
CN([C@@H](Cc1ccc(OS(=O)(=O)c2cccc3cnccc23)cc1)C(=O)N1CCN(c2ccccc2)CC1)S(=O)(=O)c1cccc2cnccc12 [KN62]	Dependence of acceleration of the chloride shift and upregulation of KCC2				
COc1ccc(S(=O)(=O)N(CCO)c2ccccc2CN(C)C/C=C/c2ccc(Cl)cc2)cc1 [KN93]		also not on Au-cultured neurons	specific and powerful effect	modest reduction; also recorded: relative lack effect	strict dependence
